{"source": "patent US20020137154A1", "about": "“Methods for improving cell growth and alcohol production during fermentation” (priority 2000, published 2002)", "tested_on": "recombinant Escherichia coli KO11", "test": "Batch fermentation of E. coli KO11 in 1% CSL medium and glucose with nutrient additives: ethanol production and cell growth", "type": "cell-based", "conditions": "for Ethanol Production Maximum / Ethanol yield / Initial Growth (OD @ 24 h) OD / Maximum Cell Density OD / Volumetric Productivity Average / Volumetric Productivity Maximum: 1% CSL+glucose; for activity at 500 µg/mL / activity at 250 µg/mL / activity at 750 µg/mL: Escherichia coli", "note": "Read-outs that look alike come from different tables or passages of the source.", "data": [{"smiles": "CC=O", "note": "[Acetaldehyde, acetaldehyde]", "values": [{"measurement": "initial growth and maximum cell density as compared to a control", "setting": "1% CSL and glucose, 0.25 g/L at the start", "value": "greatest initial growth and maximum cell density"}, {"measurement": "ethanol production as compared to the control", "setting": "1% CSL and glucose, 0.75 g/L at the start", "value": "highest amount of ethanol production"}, {"measurement": "Ethanol Production Maximum", "setting": "0.25 g/L at start", "value": 40.31, "unit": "g/L"}, {"measurement": "Ethanol yield", "setting": "0.25 g/L at start", "value": "0.415 grams of ethanol/grams of added sugar"}, {"measurement": "Initial Growth (OD @ 24 h) OD", "setting": "0.25 g/L at start", "value": 3.00, "unit": "OD"}, {"measurement": "Maximum Cell Density OD", "setting": "0.25 g/L at start", "value": 3.17, "unit": "OD"}, {"measurement": "Volumetric Productivity Average", "setting": "0.25 g/L at start", "value": "0.560 grams ethanol/(liter)(hour)"}, {"measurement": "Volumetric Productivity Maximum", "setting": "0.25 g/L at start", "value": "0.678 grams ethanol/(liter)(hour)"}, {"measurement": "Ethanol Production Maximum", "setting": "0.5 + 0.25 g/L (start, 8 h)", "value": 40.25, "unit": "g/L"}, {"measurement": "Ethanol yield", "setting": "0.5 + 0.25 g/L (start, 8 h)", "value": "0.414 grams of ethanol/grams of added sugar"}, {"measurement": "Initial Growth (OD @ 24 h) OD", "setting": "0.5 + 0.25 g/L (start, 8 h)", "value": 2.64, "unit": "OD"}, {"measurement": "Maximum Cell Density OD", "setting": "0.5 + 0.25 g/L (start, 8 h)", "value": 2.99, "unit": "OD"}, {"measurement": "Volumetric Productivity Average", "setting": "0.5 + 0.25 g/L (start, 8 h)", "value": "0.419 grams ethanol/(liter)(hour)"}, {"measurement": "Volumetric Productivity Maximum", "setting": "0.5 + 0.25 g/L (start, 8 h)", "value": "0.598 grams ethanol/(liter)(hour)"}, {"measurement": "Ethanol Production Maximum", "setting": "0.5 + 0.5 g/L (start, 8 h)", "value": 40.03, "unit": "g/L"}, {"measurement": "Ethanol yield", "setting": "0.5 + 0.5 g/L (start, 8 h)", "value": "0.412 grams of ethanol/grams of added sugar"}, {"measurement": "Initial Growth (OD @ 24 h) OD", "setting": "0.5 + 0.5 g/L (start, 8 h)", "value": 2.74, "unit": "OD"}, {"measurement": "Maximum Cell Density OD", "setting": "0.5 + 0.5 g/L (start, 8 h)", "value": 3.09, "unit": "OD"}, {"measurement": "Volumetric Productivity Average", "setting": "0.5 + 0.5 g/L (start, 8 h)", "value": "0.417 grams ethanol/(liter)(hour)"}, {"measurement": "Volumetric Productivity Maximum", "setting": "0.5 + 0.5 g/L (start, 8 h)", "value": "0.659 grams ethanol/(liter)(hour)"}, {"measurement": "Ethanol Production Maximum", "setting": "0.5 g/L at start", "value": 39.95, "unit": "g/L"}, {"measurement": "Ethanol yield", "setting": "0.5 g/L at start", "value": "0.411 grams of ethanol/grams of added sugar"}, {"measurement": "Initial Growth (OD @ 24 h) OD", "setting": "0.5 g/L at start", "value": 2.77, "unit": "OD"}, {"measurement": "Maximum Cell Density OD", "setting": "0.5 g/L at start", "value": 2.96, "unit": "OD"}, {"measurement": "Volumetric Productivity Average", "setting": "0.5 g/L at start", "value": "0.416 grams ethanol/(liter)(hour)"}, {"measurement": "Volumetric Productivity Maximum", "setting": "0.5 g/L at start", "value": "0.615 grams ethanol/(liter)(hour)"}, {"measurement": "Ethanol Production Maximum", "setting": "0.75 g/L at start", "value": 43.44, "unit": "g/L"}, {"measurement": "Ethanol yield", "setting": "0.75 g/L at start", "value": "0.447 grams of ethanol/grams of added sugar"}, {"measurement": "Initial Growth (OD @ 24 h) OD", "setting": "0.75 g/L at start", "value": 2.47, "unit": "OD"}, {"measurement": "Maximum Cell Density OD", "setting": "0.75 g/L at start", "value": 2.81, "unit": "OD"}, {"measurement": "Volumetric Productivity Average", "setting": "0.75 g/L at start", "value": "0.452 grams ethanol/(liter)(hour)"}, {"measurement": "Volumetric Productivity Maximum", "setting": "0.75 g/L at start", "value": "0.699 grams ethanol/(liter)(hour)"}, {"measurement": "activity at 500 µg/mL", "setting": "8 h, read-out: Ethanol Production Maximum % Control, 1% CSL+glucose, 0.5 + 0.25 g/L (start, 8 h)", "value": 109, "unit": "%"}, {"measurement": "activity at 500 µg/mL", "setting": "8 h, read-out: Ethanol Production Maximum % Control, 1% CSL+glucose, 0.5 + 0.5 g/L (start, 8 h)", "value": 108, "unit": "%"}, {"measurement": "activity at 500 µg/mL", "setting": "8 h, read-out: Maximum Cell Density % Control, 1% CSL+glucose, 0.5 + 0.25 g/L (start, 8 h)", "value": 111, "unit": "%"}, {"measurement": "activity at 500 µg/mL", "setting": "8 h, read-out: Maximum Cell Density % Control, 1% CSL+glucose, 0.5 + 0.5 g/L (start, 8 h)", "value": 115, "unit": "%"}, {"measurement": "activity at 500 µg/mL", "setting": "8 h, read-out: Volumetric Productivity Average % Control, 1% CSL+glucose, 0.5 + 0.25 g/L (start, 8 h)", "value": 109, "unit": "%"}, {"measurement": "activity at 500 µg/mL", "setting": "8 h, read-out: Volumetric Productivity Average % Control, 1% CSL+glucose, 0.5 + 0.5 g/L (start, 8 h)", "value": 108, "unit": "%"}, {"measurement": "activity at 500 µg/mL", "setting": "8 h, read-out: Volumetric Productivity Maximum % Control, 1% CSL+glucose, 0.5 + 0.25 g/L (start, 8 h)", "value": 116, "unit": "%"}, {"measurement": "activity at 500 µg/mL", "setting": "8 h, read-out: Volumetric Productivity Maximum % Control, 1% CSL+glucose, 0.5 + 0.5 g/L (start, 8 h)", "value": 128, "unit": "%"}, {"measurement": "activity at 250 µg/mL", "setting": "24 h, read-out: Initial Growth (OD @ 24 h) % Control, 1% CSL+glucose, 0.25 g/L at start", "value": 112, "unit": "%"}, {"measurement": "activity at 500 µg/mL", "setting": "24 h, read-out: Initial Growth (OD @ 24 h) % Control, 1% CSL+glucose, 0.5 + 0.25 g/L (start, 8 h)", "value": 98.9, "unit": "%"}, {"measurement": "activity at 500 µg/mL", "setting": "24 h, read-out: Initial Growth (OD @ 24 h) % Control, 1% CSL+glucose, 0.5 + 0.5 g/L (start, 8 h)", "value": 103, "unit": "%"}, {"measurement": "activity at 500 µg/mL", "setting": "24 h, read-out: Initial Growth (OD @ 24 h) % Control, 1% CSL+glucose, 0.5 g/L at start", "value": 104, "unit": "%"}, {"measurement": "activity at 750 µg/mL", "setting": "24 h, read-out: Initial Growth (OD @ 24 h) % Control, 1% CSL+glucose, 0.75 g/L at start", "value": 92.5, "unit": "%"}, {"measurement": "activity at 250 µg/mL", "setting": "read-out: Ethanol Production Maximum % Control, 1% CSL+glucose, 0.25 g/L at start", "value": 109, "unit": "%"}, {"measurement": "activity at 500 µg/mL", "setting": "read-out: Ethanol Production Maximum % Control, 1% CSL+glucose, 0.5 g/L at start", "value": 108, "unit": "%"}, {"measurement": "activity at 750 µg/mL", "setting": "read-out: Ethanol Production Maximum % Control, 1% CSL+glucose, 0.75 g/L at start", "value": 117, "unit": "%"}, {"measurement": "activity at 250 µg/mL", "setting": "read-out: Maximum Cell Density % Control, 1% CSL+glucose, 0.25 g/L at start", "value": 118, "unit": "%"}, {"measurement": "activity at 500 µg/mL", "setting": "read-out: Maximum Cell Density % Control, 1% CSL+glucose, 0.5 g/L at start", "value": 110, "unit": "%"}, {"measurement": "activity at 750 µg/mL", "setting": "read-out: Maximum Cell Density % Control, 1% CSL+glucose, 0.75 g/L at start", "value": 105, "unit": "%"}, {"measurement": "activity at 250 µg/mL", "setting": "read-out: Volumetric Productivity Average % Control, 1% CSL+glucose, 0.25 g/L at start", "value": 145, "unit": "%"}, {"measurement": "activity at 500 µg/mL", "setting": "read-out: Volumetric Productivity Average % Control, 1% CSL+glucose, 0.5 g/L at start", "value": 108, "unit": "%"}, {"measurement": "activity at 750 µg/mL", "setting": "read-out: Volumetric Productivity Average % Control, 1% CSL+glucose, 0.75 g/L at start", "value": 117, "unit": "%"}, {"measurement": "activity at 250 µg/mL", "setting": "read-out: Volumetric Productivity Maximum % Control, 1% CSL+glucose, 0.25 g/L at start", "value": 132, "unit": "%"}, {"measurement": "activity at 500 µg/mL", "setting": "read-out: Volumetric Productivity Maximum % Control, 1% CSL+glucose, 0.5 g/L at start", "value": 120, "unit": "%"}, {"measurement": "activity at 750 µg/mL", "setting": "read-out: Volumetric Productivity Maximum % Control, 1% CSL+glucose, 0.75 g/L at start", "value": 136, "unit": "%"}]}]}
